Measurements published in ChEMBL document CHEMBL3885881, “DrugMatrix”.

Species: Rattus norvegicus
Test: DrugMatrix - Regimen: Daily Repeat
Type: toxicity, organism-based, Sprague-Dawley
Parameters: regimen Daily Repeat, gender Male, age 6-8 weeks
Conditions: in vivo, po, route oral GAVAGE, […]; for ABSOLUTE BASOPHIL / ABSOLUTE EOSINOPHIL / ABSOLUTE LYMPHOCYTE / ABSOLUTE MONOCYTE / ABSOLUTE SEGMENTED NEUTROPHIL / BASOPHIL / EOSINOPHIL / ERYTHROCYTE COUNT / HEMATOCRIT / HEMOGLOBIN / LEUKOCYTE COUNT / LYMPHOCYTE / MEAN CORPUSCULAR HEMOGLOBIN / MEAN CORPUSCULAR HEMOGLOBIN CONCENTRATION / MEAN CORPUSCULAR VOLUME / MONOCYTE / NEUTROPHIL / NUCLEATED RED BLOOD CELLS / PLATELET COUNT: tissue Blood; for ALANINE AMINOTRANSFERASE / ALBUMIN / ALKALINE PHOSPHATASE / ASPARTATE AMINOTRANSFERASE / BLOOD UREA NITROGEN / CARBON DIOXIDE / CHLORIDE / CHOLESTEROL / CREATINE PHOSPHOKINASE / CREATININE / GLUCOSE / LACTATE DEHYDROGENASE / LIPASE / PHOSPHORUS / POTASSIUM / SODIUM / TOTAL BILIRUBIN / TOTAL PROTEIN / URIC ACID: tissue Plasma
[1] = 0 mg/kg, 72 h, dose level Control, time 3 day
[2] = 0 mg/kg, 120 h, dose level Control, time 5 day
[3] = 100 mg/kg, 72 h, dose level Low, time 3 day

## CC(=O)Nc1ccc(O)cc1 [ACETAMINOPHEN]
[1]
  ABSOLUTE BASOPHIL: 0 CELLS/uL
  ABSOLUTE EOSINOPHIL: 0 CELLS/uL
  ABSOLUTE LYMPHOCYTE: 6275.67 CELLS/uL
  ABSOLUTE MONOCYTE: 40.67 CELLS/uL
  ABSOLUTE SEGMENTED NEUTROPHIL: 633.67 CELLS/uL
  BASOPHIL: 0%
  EOSINOPHIL: 0%
  ERYTHROCYTE COUNT: 5.2 x10E6/uL
  HEMATOCRIT: 32.78%
  HEMOGLOBIN: 12.98 G/DL
  LEUKOCYTE COUNT: 6.95 x10E3/uL
  LYMPHOCYTE: 90.17%
  MEAN CORPUSCULAR HEMOGLOBIN: 24.97 pg
  MEAN CORPUSCULAR HEMOGLOBIN CONCENTRATION: 39.62 G/DL
  MEAN CORPUSCULAR VOLUME: 63.03 fL
  MONOCYTE: 0.67%
  NEUTROPHIL: 9.17%
  NUCLEATED RED BLOOD CELLS: 0 /100WBC
  PLATELET COUNT: 1082.83 x10E3/uL
  ALANINE AMINOTRANSFERASE: 69.67 u/L
  ALBUMIN: 4.15 G/DL
  ALKALINE PHOSPHATASE: 430.5 u/L
  ASPARTATE AMINOTRANSFERASE: 90.83 u/L
  BLOOD UREA NITROGEN: 13 mg/dL
  CARBON DIOXIDE: 33 mmol/L
  CHLORIDE: 99.17 MEQ/L
  CHOLESTEROL: 70.5 mg/dL
  CREATINE PHOSPHOKINASE: 253.33 u/L
  CREATININE: 0.13 mg/dL
  GLUCOSE: 157.17 mg/dL
  LACTATE DEHYDROGENASE: 85 u/L
  LIPASE: 10 u/L
  PHOSPHORUS: 10.2 mg/dL
  POTASSIUM: 5.78 MEQ/L
  SODIUM: 144.12 MEQ/L
  TOTAL BILIRUBIN: 0.2 mg/dL
  TOTAL PROTEIN: 5.8 G/DL
  URIC ACID: 0.8 mg/dL
[2]
  ABSOLUTE BASOPHIL: 0 CELLS/uL
  ABSOLUTE EOSINOPHIL: 0 CELLS/uL
  ABSOLUTE LYMPHOCYTE: 10431 CELLS/uL
  ABSOLUTE MONOCYTE: 90.5 CELLS/uL
  ABSOLUTE SEGMENTED NEUTROPHIL: 1111.83 CELLS/uL
  BASOPHIL: 0%
  EOSINOPHIL: 0%
  ERYTHROCYTE COUNT: 5.51 x10E6/uL
  HEMATOCRIT: 34.67%
  HEMOGLOBIN: 13.5 G/DL
  LEUKOCYTE COUNT: 11.63 x10E3/uL
  LYMPHOCYTE: 89.67%
  MEAN CORPUSCULAR HEMOGLOBIN: 24.5 pg
  MEAN CORPUSCULAR HEMOGLOBIN CONCENTRATION: 38.95 G/DL
  MEAN CORPUSCULAR VOLUME: 62.87 fL
  MONOCYTE: 0.67%
  NEUTROPHIL: 9.67%
  NUCLEATED RED BLOOD CELLS: 0 /100WBC
  PLATELET COUNT: 1052.67 x10E3/uL
  ALANINE AMINOTRANSFERASE: 54.67 u/L
  ALBUMIN: 4.15 G/DL
  ALKALINE PHOSPHATASE: 359.83 u/L
  ASPARTATE AMINOTRANSFERASE: 83 u/L
  BLOOD UREA NITROGEN: 13.5 mg/dL
  CARBON DIOXIDE: 27.17 mmol/L
  CHLORIDE: 98.5 MEQ/L
  CHOLESTEROL: 66.83 mg/dL
  CREATINE PHOSPHOKINASE: 256.17 u/L
  CREATININE: 0.19 mg/dL
  GLUCOSE: 171.33 mg/dL
  LACTATE DEHYDROGENASE: 91.5 u/L
  LIPASE: 10.5 u/L
  PHOSPHORUS: 8.72 mg/dL
  POTASSIUM: 5.34 MEQ/L
  SODIUM: 142.53 MEQ/L
  TOTAL BILIRUBIN: 0.2 mg/dL
  TOTAL PROTEIN: 6.05 G/DL
  URIC ACID: 0.6 mg/dL
[3]
  ABSOLUTE BASOPHIL: 0 CELLS/uL
  ABSOLUTE EOSINOPHIL: 0 CELLS/uL
  ABSOLUTE LYMPHOCYTE: 7022 CELLS/uL
  ABSOLUTE MONOCYTE: 162.33 CELLS/uL
  ABSOLUTE SEGMENTED NEUTROPHIL: 715.67 CELLS/uL
  BASOPHIL: 0%
  EOSINOPHIL: 0%
  ERYTHROCYTE COUNT: 5.13 x10E6/uL
  HEMATOCRIT: 32.6%
  HEMOGLOBIN: 12.9 G/DL
  LEUKOCYTE COUNT: 7.9 x10E3/uL
  LYMPHOCYTE: 88.67%
  MEAN CORPUSCULAR HEMOGLOBIN: 25.13 pg
  MEAN CORPUSCULAR HEMOGLOBIN CONCENTRATION: 39.57 G/DL
  MEAN CORPUSCULAR VOLUME: 63.53 fL
  MONOCYTE: 2%
  NEUTROPHIL: 9.33%
  NUCLEATED RED BLOOD CELLS: 0 /100WBC
  PLATELET COUNT: 1191.67 x10E3/uL
  ALANINE AMINOTRANSFERASE: 62 u/L
  ALBUMIN: 4.1 G/DL
  ALKALINE PHOSPHATASE: 340 u/L
  ASPARTATE AMINOTRANSFERASE: 77.67 u/L
  BLOOD UREA NITROGEN: 15.33 mg/dL
  CARBON DIOXIDE: 33.67 mmol/L
  CHLORIDE: 98.67 MEQ/L
  CHOLESTEROL: 85 mg/dL
  CREATINE PHOSPHOKINASE: 201.67 u/L
  CREATININE: 0.15 mg/dL
  GLUCOSE: 165 mg/dL
  LACTATE DEHYDROGENASE: 82.67 u/L
  LIPASE: 10 u/L
  PHOSPHORUS: 11 mg/dL
  POTASSIUM: 5.65 MEQ/L
  SODIUM: 145.13 MEQ/L
  TOTAL BILIRUBIN: 0.2 mg/dL
  TOTAL PROTEIN: 5.9 G/DL
  URIC ACID: 0.73 mg/dL
